Patent US20100093861A1, “TREATMENT OF INSULIN RESISTANCE OR DISEASES ASSOCIATED WITH INSULIN RESISTANCE” (Stevia ApS, priority 2006, published 2010)

How the values were obtained:
Nkx2-2 = assay: Affymetrix gene chip analysis of KKAy islets: Nkx2-2; format: in vivo, mice; details: ISV vs. KKAy control islets, 9 weeks
Experimental: (§1) cRNA preparation and in vitro transcription: In total 6 Affymetrix arrays MOE430 2.0 probe array cartridge were used i.e. for analysis of 3 replicas for the KKAy control group and the ISV group, respectively. Each of the 6 samples consisted of pooled RNA from 3-4 KKAy mice. Preparation of target for hybridization was prepared from 340 ng of total RNA using MessageAmp™ II aRNA Amplification Kits (Ambion), according to the manufacturers instructions. Arrays were hybridised and scanned as described elsewhere (Kruhoffer et al., 2005).

[1] = test system: total insulin protein content of KKAy islets; assay: Insulin content of isolated islets from KKAy mice (RIA); format: in vivo; details: KKAy mice after 9 weeks treatment
Experimental: The Insulin content of isolated islet from the KKAy mice was measured using RIA as described for the Insulin assay. Total islet protein was purified from the organic phase during from the RNA Trizol preparation according to the manufactures instruction (Gibco BRL, Life Technologies, Roskilde, DK).
In order to clarify if this increased levels of Ins1 mRNA are translated, the total insulin content from the very limited protein fraction collected from the organic phase during RNA preparation from isolated islets from the KKAY and ISV group was measured using RIA (FIG. 17). The insulin content from the ISV group compared to the KKAy control was 2.4 fold (p=0.003) higher, supporting the gene expression analysis.

Pdx1 = assay: Affymetrix gene chip analysis of KKAy islets: Pdx1; format: in vivo, mice; details: ISV vs. KKAy control islets, 9 weeks
Experimental: as §1

IGF-1 = assay: Gene expression in islets from diabetic KKAy-mice, real time RT-PCR (Example 2): IGF-1; format: in vivo; details: islets of KKAy-mice after nine weeks treatment, normalized to 18S rRNA
Experimental: (§2) A the end of the nine week period of the in vivo study in example 1 RNA was purified from Islets, muscle, liver and fat from the three experimental groups, using standard techniques as described in Kiergen, RNA easy.
(§3) Gene expression of PDX-1, IRS1, Beta2, 11beta-HSD-1, Akt1, C/EBP-alpha, CPT1, GLUT2, IGF1, IR and Ins1 was measured with Real time RT-PCR using Taq Man Assays normalized to 18S rRNA, using the standard protocol (ABI, USA). All reagents were obtained from (ABI, USA). All probes are standard probes obtainable from ABI, USA, under the specific probe code number, given in respect of each gene.

Beta2 = assay: Gene expression in islets from diabetic KKAy-mice, real time RT-PCR (Example 2): Beta2; format: in vivo; details: islets of KKAy-mice after nine weeks treatment, normalized to 18S rRNA
Experimental: as §2, §3

InsII = assay: Affymetrix gene chip analysis of KKAy islets: InsII; format: in vivo, mice; details: ISV vs. KKAy control islets, 9 weeks
Experimental: as §1

GLUT2 = assay: Relative real time RT-PCR in islets of KKAy mice (Example 3): GLUT2; format: in vivo; details: 9 weeks
Experimental: (§4) Islets were isolated by the collagenase digestion technique. In brief, the animals were anesthetized with pentobarbital (50 mg/kg intraperitoneally) and midline laparotomy was performed. The pancreas was retrogradely filled with 3 mL ice-cold Hanks balanced salt solution (([HBSS] Sigma Chemical, St Louis, Mo.) supplemented with 0.3 mg/ml collagenase Boehringer Mannheim GmbH, Germany). The pancreas was subsequently removed and incubated for 19 minutes at 37° C. After rinsing in HBSS, the islets were handpicked under a stereomicroscope and immediately transferred to a tubes containing 1 ml Trizol (Gibco/Invitrogene, Calsbad, Calif., USA). The islets isolated from the NMRI mice were incubated overnight at 37° C. and 95% normal atmosphere/5% CO2 in 10 ml RPMI 1640 containing 11.1 mmol/L glucose supplemented with penicillin G and 100 μg/mL streptomycin (all Gibco/Invitrogene, Calsbad, Calif., USA).
(§5) For each group, islets from 3-4 mice (180-200 islets) were pooled in 1 ml Trizol reagent (Gibco/lnvitrogene, Calsbad, Calif., USA) before RNA purification. Total RNA was extracted according to the manufactures' instructions. RNA was quantified by measuring absorbance at 260 and 280 nm. The quality of the RNA was checked by the Agilent 2100 bioanalyzer (Agilent, Santa Clara, USA). […]

visfatin = assay: Affymetrix gene chip analysis of KKAy islets: visfatin; format: in vivo, mice; details: ISV vs. KKAy control islets, 9 weeks
Experimental: as §1

GLUT-2 = assay: Gene expression in islets from diabetic KKAy-mice, real time RT-PCR (Example 2): GLUT-2; format: in vivo; details: islets of KKAy-mice after nine weeks treatment, normalized to 18S rRNA
Experimental: as §2, §3

11-beta-HSD-1 = assay: Relative real time RT-PCR in islets of KKAy mice (Example 3): 11-beta-HSD-1; format: in vivo; details: 9 weeks
Experimental: as §4, §5

## C[C@@]12CC[C@@H]3[C@@](CC[C@H]4[C@@]3(C)CCC[C@@]4(C)C(=O)O)(CC1=O)C2 (single isomer, unassigned; ent-16) [ISV, ent-16-ketobeyeran-19-oic acid]
Nkx2-2
  array: increased expression in Nkx2-2: 2.3 fold
[1]
  insulin content of islets compared to the KKAy control, higher: 2.4 fold
Pdx1
  array: change of Pdx1 expression: upregulation
IGF-1
  decreased expression of IGF1 compared to standard diet: 46%
Beta2
  increased expression of beta2 compared to standard diet: 60%
InsII
  array: change of InsII expression: no changes
GLUT2; RT-PCR
  up regulation of the GLUT2 gene transcript: more than 3 fold
GLUT2; normalized to 18S rRNA
  increased expression of GLUT2, ISV group vs. control group: 201%
visfatin
  array: change of visfatin expression: no changes
GLUT-2
  increased expression of GLUT-2 compared to standard diet: 60%
11-beta-HSD-1; RT-PCR
  down regulation of 11-beta-HSD-1: 2.5 fold
11-beta-HSD-1; normalized to 18S rRNA
  decreased expression of 11-beta-HSD-1, ISV group vs. control group: 61%
